Patent publication US20230218558A1, “NOVEL THERAPEUTIC USE OF PLEUROMUTILINS” (priority 2020, published 2023)
Converted amounts (≈) assume the structure as drawn. Like-named read-outs stand apart in the source and are kept apart here.

How the values were obtained:
MDCK cells = conditions: Example 10; for CC50: read-out: TC50, MDCK cells
HEp2 cells = experiment: Cell viability of uninfected drug control wells, HEp2 cells, XTT; conditions: Example 3
MRC-5 cells [1] = experiment: Cell viability of uninfected drug control wells, MRC-5 cells, XTT; conditions: Example 1; for cytotoxic effect on the viability of the cell control: concentration 10 μM (b103 prints 10 M for Lefamulin); for cytotoxic effect: concentration 50 μM
[2] = system: influenza A/Puerto Rico/8/34 (H1N1); assay type: in vivo, BALB/c mice; conditions: for effect on bodyweight / bodyweight loss: SC, investigated doses, FIG. 7A; for lung viral titre (TCID50 on MDCK cells): Day 3 and Day 6, Lefamulin at both doses, compared with vehicle treated control
HeLa cells = experiment: Cell viability, HeLa cells, XTT; conditions: read-out: TC50, Example 6
[3] = system: human rhinovirus strain HRV16 strain 11757; experiment: Inhibition of virus-induced CPE, human rhinovirus in H1-HeLa cells; assay type: cell-based; conditions: Example 9, rhinovirus HRV1611757, 4 h pretreatment, MOI 0.0005
Description: Cell viability determination as well as EC50 and TC50 calculations were performed as described in Examples 1 and 3.

Huh7 cells = experiment: Cell viability, Huh7 cells, XTT
[4] = system: influenza virus strain A/PR/8/34; experiment: Inhibition of virus-induced CPE, influenza virus in MDCK cells; assay type: cell-based
[5] = system: vesicular stomatitis virus (VSV); conditions: cited from earlier work
[6] = system: influenza A virus strain (PR8); conditions: concentration of 2 mg/mL; cited from earlier work
[7] = system: herpes simplex type 1 (HSV-1) virus; conditions: cited from earlier work
polio virus = conditions: cited from earlier work
MRC-5 cells [8] = conditions: human
[9] = system: Measles virus strain Edmonston; experiment: microbe, parasite or virus in culture; assay type: cell-based; conditions: Measles morbillivirus, HeLa
[10] = system: influenza A virus, porcine reproductive and respiratory syndrome virus (PRRSV) type 1 and 2; conditions: WO 2009/106839; 4 hours post inoculation; cited from earlier work
[11] = high dose: 105 mg/kg/day SC in three injections until day 3, then 70 mg/kg twice daily
[12] = read-out: TC50, Example 8, Zika experiment

With `C=C[C@]1(C)C[C@@H](OC(=O)CS[C@@H]2CC[C@@H](N)C[C@H]2O)[C@]2(C)C(C)CC[C@]3(CCC(=O)[C@H]32)[C@@H](C)[C@@H]1O` (stereo partly drawn) [Lefamulin, 14-O-{[(1R, 2R, 4R)-4-amino-2-hydroxy-cyclohexylsulfanyl]-acetyl}-mutilin] as the compound, how does the “concentrations cytotoxic to MDCK cells” value (MDCK cells) read?
The value was “greater than 23 μM”.

What about the CC50 (MDCK cells) of the same compound?
Its CC50 is 23.8 µM.

And the cytotoxic effect (HEp2 cells; concentration 100 μM)?
Its cytotoxic effect is “cytotoxic effect”.

And the “cytotoxic effect on the viability of the cell control” value (“cytotoxic effect on the viability” for short) (HEp2 cells; concentrations 10 μM and 50 μM)?
The value was “no cytotoxic effect”.

What about the “cytotoxic effect on the viability” value (MRC-5 cells [1]) of the same compound?
The value was “no cytotoxic effect”.

What about the cytotoxic effect (MRC-5 cells [1]) of the same compound?
Its cytotoxic effect is “cytotoxic effect”.

And the TC50 (MRC-5 cells [1]; uninfected MRC-5 cells, 6 days)?
Its TC50 is 55.3 µM.

And the “effect on bodyweight / bodyweight loss” value ([2]; BALB/c mice)?
The value was “did not have a significant effect”.

What about the “lung viral titre (TCID50 on MDCK cells)” value [2] of the same compound?
Its value is “reduced lung viral titres”.

And the “clinical scores compared to vehicle” value [2, 11]?
The value was “increase in clinical scores”.

And the “survival compared to vehicle” value [2, 11]?
The value was “decrease in survival”.

And the “bronchial degeneration and alveolar inflammation (histopathology)” value ([2]; high dose, Day 6 lungs, compared to vehicle)?
The value was “significant reduction”.

And the overall histopathology score ([2]; high dose, Day 6 lungs, compared to vehicle treated control)?
The overall histopathology score was “overall significant reduction”.

And the survival ([2]; lower dose: 35 mg/kg SC twice daily (70 mg/kg/day), until day 6)?
Its survival is 90%.

What about the CC50 (HeLa cells) of the same compound?
The CC50 was 72.7 µM.

What about the EC50 [3] of the same compound?
Its EC50 is 9.34 µM.

And the CC50 (Huh7 cells; read-out: TC50, Example 7, Dengue experiment)?
The CC50 was 23.3 µM.

What about the CC50 (Huh7 cells; [12]) of the same compound?
The CC50 was 23.4 µM.

What about the EC50 [4] of the same compound?
The EC50 was greater than 23.8 µM.

Which CC50 (MDCK cells) does the source give for `CCOC(=O)C1=C[C@@H](OC(CC)CC)[C@H](NC(C)=O)[C@@H](N)C1` [Oseltamivir] here?
The CC50 was greater than 200 µM.

And the “effect on bodyweight / bodyweight loss” value ([2]; BALB/c mice)?
Its value is “reduction”.

And the clinical scores ([2]; BALB/c mice, positive control treatment, FIG. 7B)?
The clinical scores was “reduction”.

What about the “lung viral titre (TCID50 on MDCK cells)” value [2] of the same compound?
Its value is “reduced lung viral titres”.

What about the EC50 [4] of the same compound?
Its EC50 is 0.06 µM.

What does the source list for `C=C[C@]1(C)C[C@@H](OC(=O)CO)[C@]2(C)[C@H](C)CC[C@]3(CCC(=O)[C@H]32)[C@@H](C)[C@@H]1O` [Pleuromutilin]?
activity against vesicular stomatitis virus [5]: activity; antiviral activity [6]: antiviral activity; concentration that conferred a 50% protection of the cytopathic effect induced by HSV-1 (CPE50) [7]: 15 µg/mL; EC50 ([7]; read-out: concentration that conferred a 50% protection of the cytopathic effect induced by HSV-1 (CPE50)): 40 µM; antiviral activity (polio virus): did not show antiviral activity

With `CCC(CC)COC(=O)[C@H](C)N[P@](=O)(OC[C@H]1O[C@@](C#N)(c2ccc3c(N)ncnn23)[C@H](O)[C@@H]1O)Oc1ccccc1` [Remdesivir] as the compound, how does the CC50 (MRC-5 cells [8]) read?
The CC50 was greater than 5 µM.

For `NC(=O)c1ncn([C@@H]2O[C@H](CO)[C@@H](O)[C@H]2O)n1` [Ribavirin], which EC50 [9] is on record?
Its EC50 is 1.88 µg/mL (≈ 7.7 µM).

Which EC50 [3] does the source give for `CCOC(=O)/C=C/[C@H](C[C@@H]1CCNC1=O)NC(=O)[C@@H](CC(=O)[C@@H](NC(=O)c1cc(C)on1)C(C)C)Cc1ccc(F)cc1` [Rupintrivir] here?
The EC50 was 0.0049 µM.

Which CC50 (Huh7 cells; [12]) does the source give for `CC(C)OC(=O)[C@H](C)N[P@](=O)(OC[C@H]1O[C@@H](n2ccc(=O)[nH]c2=O)[C@](C)(F)[C@@H]1O)Oc1ccccc1` [Sofosbuvir] here?
Its CC50 is greater than 10 µM.

For `C=C[C@]1(C)C[C@@H](OC(=O)CSCCN(CC)CC)[C@]2(C)[C@H](C)CC[C@]3(CCC(=O)[C@H]32)[C@@H](C)[C@@H]1O` [Tiamulin], which CC50 (MRC-5 cells [8]; 6 days) is on record?
Its CC50 is 62.9 µM.

What about the viability (HEp2 cells; concentration 10 μM) of the same compound?
Its viability is 84%.

And the viability (HEp2 cells; concentration 50 μM)?
Its viability is 70.0%.

What about the “cytotoxic effect on the viability” value (MRC-5 cells [1]) of the same compound?
Its value is “no cytotoxic effect was observed”.

What about the cytotoxic effect (MRC-5 cells [1]) of the same compound?
The cytotoxic effect was “a cytotoxic effect was observed”.

Which antiviral activity [10] does the source give for `C=C[C@]1(C)C[C@@H](OC(=O)CSC(C)(C)CNC(=O)[C@H](N)C(C)C)[C@]2(C)[C@H](C)CC[C@]3(CCC(=O)[C@H]32)[C@@H](C)[C@@H]1O` [Valnemulin] here?
The antiviral activity was “did not exhibit antiviral activity”.
